pIC50: −log10 of the molar value.
What was measured:
[1] = target: T1, Growth factor receptor-bound protein 2 (Homo sapiens, UniProt P62993); test: Binding affinity for Growth factor receptor bound protein 2 SH2 domain
[2] = target: T1, Growth factor receptor-bound protein 2; test: Inhibition of Growth factor receptor bound protein 2 SH2 domain binding to p185erbB-2 receptor
[3] = test system: MDA-MB-453; test: Inhibition of MDA-MB-453 cell proliferation; type: functional, cell-based; details: Homo sapiens

T1 sequence (P62993 whole entry, the tested form may be a part): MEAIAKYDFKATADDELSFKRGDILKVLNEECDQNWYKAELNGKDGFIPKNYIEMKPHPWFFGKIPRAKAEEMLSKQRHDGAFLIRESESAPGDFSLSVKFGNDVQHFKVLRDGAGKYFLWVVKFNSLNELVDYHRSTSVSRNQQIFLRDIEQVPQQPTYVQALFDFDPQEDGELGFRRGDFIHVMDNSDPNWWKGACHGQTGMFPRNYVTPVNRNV

SMILES | pIC50 [1] | pIC50 [2] | pIC50 [3]
[N-]=[N+]=N[C@@H](Cc1ccc(CP(=O)(O)O)cc1)C(=O)NC1(C(=O)N[C@@H](CC(N)=O)C(=O)NCCCc2cccc3ccccc23)CCCCC1 | 5.30 | < 4.52 | < 4.30
NC(=O)C[C@H](NC(=O)C1(NC(=O)[C@@H](CC(=O)O)Cc2ccc(CP(=O)(O)O)cc2)CCCCC1)C(=O)NCCCc1cccc2ccccc12 | 8.10 | 5.00 | 5.10
NC(=O)C[C@H](NC(=O)C1(NC(=O)[C@H](Cc2ccc(CP(=O)(O)O)cc2)NC(=O)C(=O)O)CCCCC1)C(=O)NCCCc1cccc2ccccc12 | 8.05 | 5.52 | 5.30

Source: ChEMBL document CHEMBL1135561, “Development of a phosphatase-stable phosphotyrosyl mimetic suitably protected for the synthesis of high-affinity Grb2 SH2 domain-binding ligands” (Bioorg Med Chem Lett, 2002)
